Test results: patent EP0908457B1, “3-(1,2-benzisothiazol- and isoxazol-5-Y1)-2,4(1H,3H)-pyrimidinedione or thione and 3-(1,2-benzisothiazol- and isoxazol-5-y1)-4(3H)-pyrimidinone or thione herbicidal agents” (BASF AKTIENGESELLSCHAFT, priority 1997, dated 1999)

Columns and labels:
[1] = system: Monochoria vaginalis, Presl.; experiment: Preemergence weed control under flooded paddy conditions, MOOVA (Monochoria); type: in vivo; conditions: preemergence, flooded paddy, rated three to four weeks after treatment; note: meaning of each grade not given here
[2] = system: Cyperus iria; experiment: Preemergence weed control under flooded paddy conditions, CYPIR (Rice Flatsedge); type: in vivo; conditions: preemergence, flooded paddy, rated three to four weeks after treatment; note: meaning of each grade not given here
[3] = system: Echinochloa oryzoides (Ard.) Fritsch.; experiment: Preemergence weed control under flooded paddy conditions, ECHORC (Watergrass (Calif.)); type: in vivo; conditions: preemergence, flooded paddy, rated three to four weeks after treatment; note: meaning of each grade not given here
[4] = system: Sagittaria pygmaea, L.; experiment: Preemergence weed control under flooded paddy conditions, SAGPY (Arrowhead (Pygmaea)); type: in vivo; conditions: preemergence, flooded paddy, rated three to four weeks after treatment; note: meaning of each grade not given here
[5] = system: Cyperus serotinus, Rottb.; experiment: Preemergence weed control under flooded paddy conditions, CYPSE (Flatsedge); type: in vivo; conditions: preemergence, rated three to four weeks after treatment; note: meaning of each grade not given here
[6] = system: Oryza sativa, (L.) Tebonnet; experiment: Rice tolerance to post-transplant applications under flooded paddy conditions (Example 187), ORYSAT (Rice, Tebonnet); conditions: rated three to four weeks after treatment

SMILES | herbicidal effect rating, MOOVA ([1]; 0.0313 kg/ha) | herbicidal effect rating, MOOVA ([1]; 0.0625 kg/ha) | herbicidal effect rating, MOOVA ([1]; 0.1250 kg/ha) | herbicidal effect rating, MOOVA ([1]; 0.2500 kg/ha) | herbicidal effect rating, CYPIR ([2]; 0.0313 kg/ha) | herbicidal effect rating, CYPIR ([2]; 0.0625 kg/ha) | herbicidal effect rating, CYPIR ([2]; 0.1250 kg/ha) | herbicidal effect rating, CYPIR ([2]; 0.2500 kg/ha) | herbicidal effect rating, ECHORC ([3]; 0.0313 kg/ha) | herbicidal effect rating, ECHORC ([3]; 0.0625 kg/ha) | herbicidal effect rating, ECHORC ([3]; 0.1250 kg/ha) | herbicidal effect rating, ECHORC ([3]; 0.2500 kg/ha) | herbicidal effect rating, SAGPY ([4]; 0.0313 kg/ha) | herbicidal effect rating, SAGPY ([4]; 0.0625 kg/ha) | herbicidal effect rating, SAGPY ([4]; 0.1250 kg/ha) | herbicidal effect rating, SAGPY ([4]; 0.2500 kg/ha) | herbicidal effect rating, CYPSE ([5]; 0.0313 kg/ha) | herbicidal effect rating, CYPSE ([5]; 0.0625 kg/ha) | herbicidal effect rating, CYPSE ([5]; 0.1250 kg/ha) | herbicidal effect rating, CYPSE ([5]; 0.2500 kg/ha) | other results
CCN(CC)C(=O)COc1ccc(C)cc1-c1nsc2ccc(-n3c(=O)cc(C(F)(F)F)n(C)c3=O)cc12 [Example 60, 3-{3-{6-[(Diethylcarbamoyl)methoxy]-m-tolyl}-1,2-benzisothiazol-5-yl}-1-methyl-6-(trifluoromethyl)-2,4(1H,3H)-pyrimidinedione] | 9.0 | 9.0 | 9.0 | 9.0 | 0.0 | 0.0 | 0.0 | 0.0 | 2.0 | 4.0 | 8.0 | 9.0 | 0.0 | 0.0 | 0.0 | 0.0 | 0.0 | 0.0 | 0.0 | 0.0 | herbicidal effect rating, ORYSAT (rice tolerance) ([6]; 0.0313 kg/ha): 0.0; herbicidal effect rating, ORYSAT (rice tolerance) ([6]; 0.0625 kg/ha): 0.0; herbicidal effect rating, ORYSAT (rice tolerance) ([6]; 0.1250 kg/ha): 0.0; herbicidal effect rating, ORYSAT (rice tolerance) ([6]; 0.2500 kg/ha): 0.0
Cc1ccc(OCC(=O)N(C(C)C)C(C)C)c(-c2nsc3ccc(-n4c(=O)cc(C(F)(F)F)n(C)c4=O)cc23)c1 [Example 61, 3-{3-{6-[(Diisopropylcarbamoyl)methoxy]-m-tolyl}-1,2-benzisothiazol-5-yl}-1-methyl-6-(trifluoromethyl)-2,4(1H,3H)-pyrimidinedione] | 8.0 | 8.0 | 9.0 | 9.0 | 0.0 | 0.0 | 2.0 | 2.0 | 4.0 | 7.0 | 8.0 | 8.0 | 0.0 | 0.0 | 0.0 | 0.0 | 0.0 | 0.0 | 0.0 | 0.0 | herbicidal effect rating, ORYSAT (rice tolerance) ([6]; 0.0313 kg/ha): 0.0; herbicidal effect rating, ORYSAT (rice tolerance) ([6]; 0.0625 kg/ha): 0.0; herbicidal effect rating, ORYSAT (rice tolerance) ([6]; 0.1250 kg/ha): 0.0; herbicidal effect rating, ORYSAT (rice tolerance) ([6]; 0.2500 kg/ha): 0.0
C=CCOc1ccc(C)cc1-c1nsc2ccc(-n3c(=O)cc(C(F)(F)F)n(C)c3=O)cc12 [Example 65, 3-{3-[6-(Allyloxy)-m-tolyl]-1,2-benzisothiazol-5-yl}-1-methyl-6-(trifluoromethyl)-2,4(1H,3H)-pyrimidinedione] | 0.0 | 0.0 | 0.0 | 0.0 | 0.0 | 0.0 | 0.0 | 0.0 | 0.0 | 0.0 | 0.0 | 0.0 | 0.0 | 0.0 | 0.0 | 0.0 | 0.0 | 0.0 | 0.0 | 0.0 | herbicidal effect rating, ORYSAT (rice tolerance) ([6]; 0.0313 kg/ha): 0.0; herbicidal effect rating, ORYSAT (rice tolerance) ([6]; 0.0625 kg/ha): 0.0; herbicidal effect rating, ORYSAT (rice tolerance) ([6]; 0.1250 kg/ha): 0.0; herbicidal effect rating, ORYSAT (rice tolerance) ([6]; 0.2500 kg/ha): 0.0
